The values that follow are results of earlier work, collected in article PMC5245897 (PLoS ONE, 2017).

This series deals with GLP-1 receptor. On the set-up: method as in PMID 8396143. The settings on record: GLP-1 receptor antagonist.

Exendin(9–39): the “GLP-1 receptor binding (in words)” value is reported as “GLP-1 receptor antagonist binding with high affinity”.
